For nine compounds, IC50 results are on record in patent US8420659B2, “Compositions and methods for inhibition of the JAK pathway” (Rigel Pharmaceuticals, Inc., priority 2008, dated 2013).

Bounds are passed on as bounds.

The term IC50 denotes the concentration needed to halve the response being measured.

This assay relates to Human primary T-cells. Put plainly: Cell Titer-Glo, Human primary T Cell, IL2 (proliferation). It counts as cell-based. As to conditions: IL-2 stimulated primary T-cell proliferation, 72 hours at 37° C., Cell Titer-Glo luminescence. The text has this:
The activity of the compounds described herein can further be characterized by assaying the effect of the 2,4-pyrimidinediamine compounds described herein on the proliferative response of primary human T-cells. In this assay, primary human. T-cells derived from peripheral blood and pre-activated through stimulation of the T-cell receptor and CD28, proliferate in culture in response to the cytokine Interleukin-2 (IL-2). This proliferative response is dependent on the activation of JAK1 and JAK3 tyrosine kinases, which phosphorylate and activate the transcription factor Stat-5. The primary human T-cells are incubated with the 2,4-pyrimidinediamine compounds in the presence of IL-2 for 72 hours, and at the assay endpoint intracellular ATP concentrations are measured to assess cell viability. A reduction in cell proliferation compared to control conditions is indicative of inhibition of the JAK kinase pathway.
Cell Titer-Glo, Human primary T Cell, IL2
Materials and Reagents: Dimethyl Sulfoxide (DMSO) (Sigma-Aldrich, Cat# D2650) was used as a control. The following reagents were used: Ficoll Hypaque (Amersham Pharmacia, Cat#17-1440-03), Anti-Human CD3 (BD Pharmingen, Cat#555336), Anti-Human CD28 (Immunotech, Cat# IM1376), Yssel's Media (Gemini Bio-products, Cat#400-103), RPMI 1640 (Cellgro, Cat#10-040-CM), Fetal Bovine Serum (JRH, Cat#12106-500M), and […] (R& D Systems, Cat#202-IL).
Human primary T-cells were isolated and cultured according to the following procedure. Whole blood was obtained from a healthy volunteer, mixed 1:1 with PBS, layered on to Ficoll Hypaque in 2:1 blood/PBS:ficoll ratio and centrifuged for 30 min at 4° C. at 1750 rpm. The lymphocytes at the serum: ficoll interface were recovered and washed twice with 5 volumes of PBS. The cells were resuspended in Yssel's medium containing 40 U/mL IL-2 and seeded into a flask pre-coated with […] anti-CD3 and […] anti-CD28. The primary T-cells were stimulated for 3-4 days, then transferred to a fresh flask and maintained in RPMI with 10% FBS and 40 U/mL IL-2.
Primary T-cells were starved of IL-2 overnight and resuspended in Yssel's medium at 2×10^6 cells/mL. 50 μL of cell suspension containing 80 U/mL IL-2 was added to each well of a flat bottom 96 well black plate. For the unstimulated control, IL-2 was omitted from the last column on the plate. Compound was serially diluted in DMSO from 5 mM in 3-fold dilutions, and then diluted 1:250 in Yssel's medium. 50 μL of 2× compound was added per well in duplicate and the cells were allowed to proliferate for 72 hours at 37° C.
Proliferation was measured using Cell Titer-Glo. The substrate was thawed and allowed to come to room temperature. After mixing the Cell Titer-Glo reagent and diluent together, 100 μL was added to each well. The plates were mixed on an orbital shaker for two minutes to induce lysis and incubated at room temperature for an additional ten minutes to allow the signal to equilibrate. The Luminescence was read on the Wallac Plate Reader (Wallac Victor2 1420 Multilabel Counter).
On the technique in general: ATP-based viability assays read luminescence as a measure of living cells.
Regarding `CCNS(=O)(=O)NCc1ccc(Nc2nc(Nc3cccc(S(N)(=O)=O)c3)ncc2Cl)cc1` [Compound I-5, N2-(3-Aminosulfonylphenyl)-5-chloro-N4-[4-[(N-ethylsulfamoylamino)methyl]phenyl]-2,4-pyrimidinediamine], the IC50 is < 500 nM.

In the case of `CCNS(=O)(=O)NCc1ccc(Nc2nc(Nc3ccc(S(N)(=O)=O)cc3)ncc2C)cc1` [Compound I-8, N2-(4-Aminosulfonylphenyl)-N4-[4-[(N-ethylsulfamoylamino)methyl]phenyl]-5-methyl-2,4-pyrimidinediamine], the 50% inhibitory concentration (IC50) was < 500 nM.

As for `CCNS(=O)(=O)NCc1cccc(Nc2nc(Nc3cccc(S(N)(=O)=O)c3)ncc2Cl)c1` [Compound I-9, N2-(3-Aminosulfonylphenyl)-5-chloro-N4-[3-[(N-ethylsulfamoylamino)methyl]phenyl]-2,4-pyrimidinediamine], the IC50 was < 500 nM.

In the case of `CCNS(=O)(=O)NCc1cccc(Nc2nc(Nc3ccc(S(N)(=O)=O)cc3)ncc2Cl)c1` [Compound I-10, N2-(4-Aminosulfonylphenyl)-5-chloro-N4-[3-[(N-ethylsulfamoylamino)methyl]phenyl]-2,4-pyrimidinediamine], the IC50 is < 500 nM.

On to `CCNS(=O)(=O)NCc1cccc(Nc2nc(Nc3cccc(S(N)(=O)=O)c3)ncc2C)c1` [Compound I-11, N2-(3-Aminosulfonylphenyl)-N4-[3-[(N-ethylsulfamoylamino)methyl]phenyl]-5-methyl-2,4-pyrimidinediamine], for which the IC50 was < 500 nM.

As to `CCNS(=O)(=O)NCc1cccc(Nc2nc(Nc3ccc(S(N)(=O)=O)cc3)ncc2C)c1` [Compound I-12, N2-(4-Aminosulfonylphenyl)-N4-[3-[(N-ethylsulfamoylamino)methyl]phenyl]-5-methyl-2,4-pyrimidinediamine], the 50% inhibitory concentration (IC50) was < 500 nM.

In the case of `CCNS(=O)(=O)NCc1cccc(Nc2nc(Nc3cccc(S(N)(=O)=O)c3)ncc2F)c1` [Compound I-13, N2-(3-Aminosulfonylphenyl)-N4-[3-[(N-ethylsulfamoylamino)methyl]phenyl]-5-fluoro-2,4-pyrimidinediamine], the IC50 was < 500 nM.

In the case of `CCNS(=O)(=O)NCc1ccc(Nc2nc(Nc3cccc(S(N)(=O)=O)c3)ncc2Cl)c(C)c1` [Compound I-15, N2-(3-Aminosulfonylphenyl)-5-chloro-N4-[4-[(N-ethylsulfamoylamino)methyl]-2-methylphenyl]-2,4-pyrimidinediamine], the IC50 is < 500 nM.

Regarding `NS(=O)(=O)c1ccc(Nc2ncc(Cl)c(Nc3ccc(CNS(=O)(=O)NC4CC4)cc3)n2)cc1` [Compound I-19, N2-(4-Aminosulfonylphenyl)-5-chloro-N4-[4-[(N-cyclopropylsulfamoylamino)methyl]phenyl]-2,4-pyrimidinediamine], the 50% inhibitory concentration (IC50) is < 500 nM.
